From US20260191998A1, “INDOLE PHTHALOCYANINE COMPOUND, PREPARATION METHOD THEREFOR, AND USE THEREOF IN TUMOR DIAGNOSIS IMAGING” (JIANGSU YAHONG MEDITECH CO., LTD., priority 2022, published 2026)
Counter-ions that a name gives are not always drawn.

Columns and labels:
[1] = test system: human bladder cancer cell line UM-UC-3; experiment: In vitro imaging effect test with addition of BSP, UM-UC-3; assay type: cell-based; conditions: 250 μM BSP, compound 1-20 μM with surfactin 1:5, 30 minutes
Description: UM-UC-3 (1.5×10^4/well) were cultured in EMEM medium (containing 10% fetal bovine serum (FBS) and 1% antibiotics (100 U/mL penicillin and 100 U/mL streptomycin)) and seeded in a 96-well plate in advance. The plate was cultured in a 5% CO2 cell culture incubator at 37° C. overnight. The following day, the culture medium was sucked away, and 250 μM of BSP was added to the test wells and preconditioned for 10 minutes, followed by addition of the culture medium containing an appropriate concentration (1-20 μM) of the compound and surfactin (the molar ratio of the test compound to the surfactin being 1:5) with or without 250 μM of BSP, and then incubated for 30 minutes. The cells were rinsed three times with PBS solution, and the near-infrared fluorescence intensity in the bladder cancer cells was observed using an integrated fluorescence microscopic imaging system from Keyence. The conditions for near-infrared photography were Ex=775/50 nm and Em=845/55 nm.

RT112 tumor [2] = conditions: 2 mg/kg or 0.4 mg/kg intraperitoneal, 48 hours after injection
Description: All animal experiments were conducted exactly in accordance with the guidelines for the care and use of animals issued by the regional animal committee. A mouse model of xenograft RT112 tumor was established by subcutaneous injection of RT112 cell suspension (2×10^6 cells/mouse, 0.1 ml PBS) into the upper right limb of 8- to 10-week-old BALB/C female nude mice (20 to 25 g). BABL/c nude mice (15 to 20 g) were purchased from Beijing Vital River Laboratory Animal Technology Co., Ltd. For in vivo near-infrared fluorescence (NIRF) imaging, the RT112 tumor-bearing mice were intraperitoneally injected with different doses of free compounds (2 mg/kg or 0.4 mg/kg), respectively. At 48 hours after injection, near-infrared imaging was performed using an IVIS Lumina spectroscopic imaging system (excitation/emission, 780/845 nm).

[3] = UV-VIS absorption spectra (optical property test); assay type: physicochemical; conditions: 10 μM, DMSO solution; for Absorbance × 10^4: at maximum absorption peak
Description: The UV-VIS absorption spectra of the compounds (10 μM, DMSO solution) were detected using Shimadzu UV2600 spectrophotometer, and the maximum absorption peak and absorbance of each compound were obtained.

hERG channels = hERG channels (Homo sapiens, UniProt Q12809); experiment: hERG whole-cell patch clamp in HEK 293 cells stably expressing hERG; assay type: cell-based; conditions: HEK 293 stably expressing hERG, tail current
Chain of hERG channels (Q12809 whole entry): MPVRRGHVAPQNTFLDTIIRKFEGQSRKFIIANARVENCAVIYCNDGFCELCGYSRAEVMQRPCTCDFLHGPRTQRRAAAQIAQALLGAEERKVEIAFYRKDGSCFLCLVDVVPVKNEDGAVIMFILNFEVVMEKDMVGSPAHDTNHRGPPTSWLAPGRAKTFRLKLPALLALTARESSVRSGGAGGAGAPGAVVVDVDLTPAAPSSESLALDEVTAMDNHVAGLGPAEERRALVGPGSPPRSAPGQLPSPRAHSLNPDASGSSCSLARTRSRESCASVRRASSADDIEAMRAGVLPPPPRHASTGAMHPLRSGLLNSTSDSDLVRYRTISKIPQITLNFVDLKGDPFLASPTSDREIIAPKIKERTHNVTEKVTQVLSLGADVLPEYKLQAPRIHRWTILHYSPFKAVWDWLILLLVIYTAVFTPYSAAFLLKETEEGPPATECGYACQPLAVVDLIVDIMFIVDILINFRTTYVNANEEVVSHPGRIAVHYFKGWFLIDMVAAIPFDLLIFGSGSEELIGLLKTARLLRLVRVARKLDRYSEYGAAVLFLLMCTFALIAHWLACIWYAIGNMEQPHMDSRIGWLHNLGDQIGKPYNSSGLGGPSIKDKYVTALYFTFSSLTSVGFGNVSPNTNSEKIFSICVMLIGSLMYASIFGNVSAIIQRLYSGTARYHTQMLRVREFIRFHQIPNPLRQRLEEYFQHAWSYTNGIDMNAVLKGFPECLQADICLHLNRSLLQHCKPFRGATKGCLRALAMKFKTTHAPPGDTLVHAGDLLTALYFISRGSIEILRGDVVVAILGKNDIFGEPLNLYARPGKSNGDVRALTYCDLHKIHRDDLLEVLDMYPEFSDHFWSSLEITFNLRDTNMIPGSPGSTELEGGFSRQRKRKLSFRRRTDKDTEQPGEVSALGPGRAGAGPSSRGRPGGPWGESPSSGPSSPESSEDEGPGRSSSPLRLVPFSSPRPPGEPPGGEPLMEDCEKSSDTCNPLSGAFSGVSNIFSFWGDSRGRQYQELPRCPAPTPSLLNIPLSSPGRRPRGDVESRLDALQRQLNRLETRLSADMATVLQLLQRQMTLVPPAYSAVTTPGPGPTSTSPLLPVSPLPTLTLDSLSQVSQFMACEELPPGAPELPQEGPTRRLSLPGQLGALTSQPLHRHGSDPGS
Description: The HEK 293 cell line (K1236) stably expressing hERG was purchased from Invitrogen. Cells were cultured in 85% DMEM, 10% dialyzed FBS, 0.1 mM NEAA, 25 mM HEPES, 100 U/mL penicillin-streptomycin, 5 μg/mL blasticidin and 400 μg/mL geneticin. Cells were split using TrypLE™ about three times a week, and maintained at a confluence of about 40% to about 80%. Before measurement, cells were cultured at a density of 5×10^5 in a 6 cm culture dish and induced with 1 μg/mL doxycycline for 48 hours.
Extracellular solution (mM): 132 NaCl, 4 KCl, […], 0.5 MgCl2, 11.1 glucose, 10 HEPES (pH 7.35 adjusted with NaOH);
Intercellular solution (mM): 140 KCl, 2 MgCl2, 10 EGTA, 10 HEPES, 5 MgATP (pH 7.35 adjusted with KOH).
The test compounds were formulated in DMSO to prepare a stock solution with a final concentration of 10 mM.
Then, the stock solution of each compound was diluted with DMSO in a 1:3 serial dilution to prepare five intermediate solutions with concentrations of 3, 1, 0.33, 0.12, 0.04 mM or 3.33, 1.11, 0.37, 0.12 mM, respectively.
Before testing, the final working solutions were prepared by diluting the intermediate solutions 1000 times with the extracellular solution. The concentration of DMSO in the working solutions was within a range around 0.1%.
The working solutions at five different concentrations of 3, 1, 0.33, 0.12 and 0.04 μM were used to determine the potential inhibition effect of the compounds on hERG channels and to fit concentration-response curves and calculate IC50.
The coverslip was removed from the cell culture dish and placed on a microscope stage.
A 10× objective was used to locate cells to be observed. An electrode tip was located under the microscope using the 10× objective by focusing above the plane of the cells. Once the tip was in focus, the electrode was advanced downward towards the cells under rough control of the manipulator, while the objective was moved so as to keep the tip in focus.
When the electrode was directly over a cell, the objective was switched to a 40× objective and fine control of the manipulator was used to enable to gradually approach the cell surface.
With gentle suction through a side port of an electrode holder, a giga-ohm seal was formed.
Cfast was used to eliminate the capacitive current consistent with the voltage step. Brief and strong suction was applied repeatedly until the membrane patch ruptured and the whole-cell configuration was obtained.
At this point, membrane potential was set to −60 mV in order to ensure that hERG channels were not open. Then, Cslow on the amplifier was used to remove the spikes of capacitive current.
Holding potential was set to −90 mV for 500 ms. Current was recorded at 20 kHz and filtering was carried out at 10 kHz. Leak current was tested at −80 mV for 500 ms.
The hERG current was elicited by depolarizing at +30 mV for 4.8 seconds, and then the voltage was restored to −50 mV for 5.2 seconds to remove the inactivation and observe the deactivating tail current. The maximum of tail current size was used to determine hERG current amplitude.
Current was recorded for 120 seconds to evaluate the current stability. Only stable cells with recording parameters above thresholds were used for drug administrations.
Firstly, vehicle control was applied to the cells to establish the baseline. […] The hERG current in the presence of the test compound was recorded for about 5 minutes to reach a steady state, and then 5 sweeps were captured. For dose-response testing, multiple compounds were applied to the cells cumulatively from low to high concentrations (multiple compounds were detected simultaneously). The positive control, Dofetilide at a concentration of 150 nM, was also applied to each cell post hERG current measurement at the highest concentration of the test compound, which was used as an internal low control for normalization of percentage inhibition. […]

RT112 tumor [4] = experiment: Tumor/background ratio in subcutaneous RT112 tumor model mice; assay type: in vivo; conditions: 2 mpk intraperitoneal, 48 hours after injection
Description: The subcutaneous tumor model mice inoculated with RT112 tumor were selected. Each compound was administrated at a dose of 2 mpk, and intraperitoneally injected.

[5] = Kinetic solubility in phosphate buffered saline (HPLC); assay type: physicochemical; conditions: phosphate buffered saline (PBS), aqueous buffer, kinetic from dmso stock, 25° C., shaken 2 hours, from 10 mM DMSO stock
Description: The compounds were weighed in an appropriate amount and dissolved in DMSO to prepare a 10 mM stock solution. 30 μL of the stock solution was taken and 970 μL of phosphate buffered saline solution (PBS) was added thereto. The solution was shaken at 25° C. on a thermostatic mixer for 2 hours, and centrifuged at 12000 rpm for 10 minutes. The supernatant was taken, and the kinetic solubility of each compound in phosphate buffered saline solution (PBS) was determined by Waters Acquity Arc HPLC.

Row | SMILES | Uptake by UM-UC-3 with or without BSP [1] | Enrichment at the tumor sites (NIR fluorescence) (RT112 tumor [2]) | Absorption peak [3] [nm] | Absorbance × 10^4 [3] | IC50 (hERG channels) [nM] | Tumor/background ratio (RT112 tumor [4]) | solubility kinetic at 2 h [5] [µg/mL]
1 | CC[N+]1=C(/C=C/C2=C(Cl)C(=C/C=C3/N(CCOCCC(=O)Oc4ccccc4)c4ccccc4C3(C)C)/CCC2)C(C)(C)c2ccccc21 [Example 7, 2-((E)-2-((E)-2-chloro-3-(2-((E)-3,3-dimethyl-1-(2-(3-oxo-3-phenoxypropoxy)ethyl)indolin-2-ylidene)ethenyl)cyclohex-1-en-1-yl)ethenyl)-1-ethyl-3,3-dimethyl-3H-indol-1-ium Trifluoroacetate] | may be weakened or enhanced by BSP | specifically enriched at the tumor sites | 794.5 | 1.92 |  |  | 
2 | CC[N+]1=C(/C=C/C2=C(Cl)C(=C/C=C3/N(CCOCC(=O)Oc4ccccc4)c4ccccc4C3(C)C)/CCC2)C(C)(C)c2ccccc21 [Example 8, 2-((E)-2-((E)-2-chloro-3-(2-((E)-3,3-dimethyl-1-(2-(2-oxo-2-phenoxyethoxy)ethyl)indolin-2-ylidene)ethenyl)cyclohex-1-en-1-yl)ethenyl)-1-ethyl-3,3-dimethyl-3H-indol-1-ium Trifluoroacetate] | may be weakened or enhanced by BSP | specifically enriched at the tumor sites | 794.5 | 1.96 |  |  | 
3 | C[N+]1=C(/C=C/C2=C(Cl)C(=C/C=C3/N(CCCCCC(=O)O)c4ccccc4C3(C)C)/CC2)C(C)(C)c2ccccc21 [Example 10, 2-((E)-2-((E)-3-(2-((E)-1-(5-carboxypentyl)-3,3-dimethylindolin-2-ylidene)ethenyl)-2-chlorocyclopent-1-en-1-yl)ethenyl)-1,3,3-trimethyl-3H-indol-1-ium Chloride] | may be weakened or enhanced by BSP | specifically enriched at the tumor sites | 821 | 2.08 | 1330 | 3.3 | 26
